Assay: Controlled release of crystal violet from nanowire scaffolds on Ti foil
Assay type: physicochemical
Details: for Release (%): crystal violet released from nanowire scaffolds on Ti, 10 mL fresh water
Procedure: A piece of dried titanium foil (2.2 cm^2) that was coated with nanofiber scaffolds was soaked in 100 mL of 0.001 mol/L crystal violet (C25H30ClN3, as a simulated drug) solution for 12 hours at room temperature. Then, the foil was collected, rinsed with deionized water, dried at room temperature overnight, and placed in 10 mL of fresh water for releasing the crystal violet molecules. The released crystal violet was measured on the Beckman DU-530 UV-Visible Spectrometer. A piece of dried titanium foil (2.2 cm^2) pre-coated with the nanowire scaffolds was soaked in 100 mL of 0.001 mol/L crystal violet (C25H30ClN3, as a simulated drug) solution for 12 hrs at room temperature. Then, the foil was collected, rinsed with deionized water, dried at room temperature overnight, and was then placed in 10 mL of fresh water for releasing the crystal violet molecules. The released crystal violet was measured on the Beckman DU-530 UV-Visible Spectrometer.

Release (%) (time 0 hours): 22.6%
Release (%) (time 2 hours): 82.0%
Release (%) (time 2 hours, listed as model drug): ~80%
Release (%) (time 4 hours): 95.0%
Release (%) (time 6 hours): 99.2%
Release (%) (time 12 hours): 100%
time at which the model drug's concentration reached a maximum (release from nanowire scaffold on Ti foil): 6 h
Structure (SMILES): CN(C)c1ccc(C(=C2C=CC(=[N+](C)C)C=C2)c2ccc(N(C)C)cc2)cc1 [Crystal violet, crystal violet]

From patent US8318297B2, “Titanate nanowire, titanate nanowire scaffold, and processes of making same” (Board of Trustees of the University of Arkansas, priority 2007, dated 2012)
